Data as given in patent US11369565B2, “Amino-pyrimidine skeletal muscle modulators” (Cytokinetics, Inc., priority 2010, dated 2022).

Each molecule was assayed on rabbit skeletal myofibrils (approximately 90% fast fibers) (assay: Activation of fast skeletal myofibrils (PUMA coupled-enzyme ATPase assay at pCa25)). Conditions: concentration at which the compound increased the enzymatic activity by 40%; calcium at pCa25; PM12 buffer pH 6.8.
Assay type: biochemical
In short: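 In pH 6.8 PM12 buffer (12 mM Pipes, 2 mM MgCl2, 1 mM DTT), ADP from myosin regenerated via pyruvate kinase/lactate dehydrogenase, with absorbance change at 340 nm from NADH oxidation as read-out. Calcium set at pCa25; Triton-washed rabbit skeletal myofibrils (about 90% fast fibres) used.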

| SMILES | Mean AC1.4 |
| --- | --- |
| NC(=O)c1ccc(F)c(-c2cnc(N[C@]3(c4ncccc4Cl)C[C@H](F)C3)nc2)c1 [3-(2-{[1-(3-chloro(2-pyridyl))-3-fluorocyclobutyl]amino}pyrimidin-5-yl)-4-fluorobenzamide] | A (A=<1 uM) |
| CC(C)(Nc1ncc(-c2noc(C(N)=O)n2)cn1)c1ncccc1Cl [3-(2-{[1-(3-chloro(2-pyridyl))-isopropyl]amino}pyrimidin-5-yl)-1,2,4-oxadiazole-5-carboxamide] | D (D=>20 uM) |
| Cn1nc(-c2cnc(NC(C)(C)c3ncccc3Cl)nc2)cc1C(N)=O [3-(2-{[1-(3-chloro(2-pyridyl))-isopropyl]amino}pyrimidin-5-yl)-1-methylpyrazole-5-carboxamide] | D (D=>20 uM) |
| CC(C)(Nc1ncc(-c2cc(C(N)=O)ccc2F)cn1)c1ncccc1Cl [3-(2-{[1-(3-chloro(2-pyridyl))-isopropyl]amino}pyrimidin-5-yl)-4-fluorobenzamide] | A (A=<1 uM) |
| CC(C)(Nc1ncc(-c2cc(C(N)=O)on2)cn1)c1ncccc1Cl [3-(2-{[1-(3-chloro(2-pyridyl))-isopropyl]amino}pyrimidin-5-yl)isoxazole-5-carboxamide] | C (C=10-20 uM) |
| COc1ccc(Cl)c(C(C)(C)Nc2ncc(-c3cccc(C(N)=O)c3)cn2)n1 [3-(2-{[1-(3-chloro-6-methoxy(2-pyridyl))-isopropyl]amino}pyrimidin-5-yl)benzamide] | A (A=<1 uM) |
| CC(C)(CNc1ncc(-c2cc(C(N)=O)ccc2F)cn1)c1ncccc1Cl [3-(2-{[2-(3-chloro(2-pyridyl))-2-methylpropyl]amino}pyrimidin-5-yl)-4-fluorobenzamide] | A (A=<1 uM) |
| CC(C)(CNc1ncc(-c2cccc(C(N)=O)c2)cn1)c1ncccc1Cl [3-(2-{[2-(3-chloro(2-pyridyl))-2-methylpropyl]amino}pyrimidin-5-yl)benzamide] | A (A=<1 uM) |
| CC(C)(CNc1ncc(-c2cccc(C(N)=O)c2)cn1)c1ncccc1F [3-(2-{[2-(3-fluoro(2-pyridyl))-2-methylpropyl]amino}pyrimidin-5-yl)benzamide] | B (B=1-10 uM) |
| CC(C)(CNc1ncc(-c2cccc(C(N)=O)c2)cn1)c1ccc(F)cc1 [3-(2-{[2-(4-fluorophenyl)-2-methylpropyl]amino}pyrimidin-5-yl)benzamide] | A (A=<1 uM) |

Results, then the molecule that gave them:

| Mean AC1.4 | SMILES |
| --- | --- |
| A (A=<1 uM) | CC(C)(Nc1ncc(-c2cccc(C(N)=O)c2)cn1)c1ncccc1Cl [3-(2-{[1-(3-chloro(2-pyridyl))-isopropyl]amino}pyrimidin-5-yl)benzamide] |
| B (B=1-10 uM) | CC(C)(Nc1ncc(-c2cccc(C(N)=O)c2)cn1)c1ncccc1F [3-(2-{[1-(3-fluoro(2-pyridyl))-isopropyl]amino}pyrimidin-5-yl)benzamide] |
| A (A=<1 uM) | CSc1ccccc1C(C)(C)Nc1ncc(-c2cccc(C(N)=O)c2)cn1 [3-(2-{[1-methyl-1-(2-methylthiophenyl)ethyl]amino}pyrimidin-5-yl)benzamide] |
| A (A=<1 uM) | CSc1ccccc1C(C)(C)Nc1ncc(-c2cccc(C#N)c2)cn1 [3-(2-{[1-methyl-1-(2-methylthiophenyl)ethyl]amino}pyrimidin-5-yl)benzenecarbonitrile] |
| B (B=1-10 uM) | CSc1cccnc1C(C)(C)Nc1ncc(-c2cccc(C(N)=O)c2)cn1 [3-(2-{[1-methyl-1-(3-methylthio(2-pyridyl))ethyl]amino}pyrimidin-5-yl)benzamide] |
| B (B=1-10 uM) | CSc1cccnc1C(C)(C)Nc1ncc(-c2cccc(C#N)c2)cn1 [3-(2-{[1-methyl-1-(3-methylthio(2-pyridyl))ethyl]amino}pyrimidin-5-yl)benzenecarbonitrile] |
| D (D=>20 uM) | CSc1ccc(C(C)(C)Nc2ncc(-c3cccc(C#N)c3)cn2)cc1 [3-(2-{[1-methyl-1-(4-methylthiophenyl)ethyl]amino}pyrimidin-5-yl)benzenecarbonitrile] |
